The data set is described as follows: Radioactivity levels of tissue and plasma samples two hours after administration. As to conditions: 5 mg/kg iv. As for the experimental part: Chimeric mice from PhoenixBio Co., Ltd. were employed.
The pH of the solution was adjusted to 7.0 with a 0.1% aqueous citric acid solution, and the concentration was adjusted to 1 mg/mL with distilled water for injection. The liquid was bolus-administered at 5 mL/kg to the caudal vein of the mice (5 mg/5 mL/kg).
Livers and kidneys were taken from other mice two hours after administration, following sacrificing through exsanguination. Blood plasma was collected by sampling blood through the orbital venousplexus and centrifuging it. Bile was collected from the chimeric mice and the control mice through bile duct cannulation until 72 hours after administration.
Radioactivity of each sample was determined by use of a liquid scintillator (Hionic-flow, product of Perkin-Elmer) with Tri-Carb 2500 (Perkin-Elmer) as a liquid scintillation counter. The measurement was performed for two minutes.
In analysis of blood plasma, bile, and urine, the sample (10 μL) was collected in a 20-mL glass vial, added Hionic-flow (10 mL), and the mixture was analyzed.
In analysis of tissue samples (liver and kidney), an amount 3-fold (by weight) of acetate buffer (0.1M, pH3.0) was added to each sample, and the mixture was homogenized with a polytron-homogenizer. An aliquot (50 μL) of the homogenate was solubilized with 2 mL of Soluene 350 (Perkin-Elmer), added Hionic-flow (10 mL), and the mixture was analyzed.

The structures appear in SMILES notation. Several values for one entry are separate records, joined by “and”; a condition that tells them apart may be missing. Equal values may be shown once.

In the case of `CC(C(=O)O)c1cccc(C(=O)c2ccccc2)c1` (centres unmarked) [ketoprofen, Ketoprofen], the “Concentration (radioactivity level), kidney” value (chimeric mice) is 5.03±1.25 μg eq./mL and 5.03 μg eq./mL; the “Concentration (radioactivity level), kidney” value (control mice) was 4.70±0.61 μg eq./mL and 4.70 μg eq./mL.
